What was measured:
[1] = target: T1, TYK2-JH2 (aa 575-869, in-house) protein (Homo sapiens, UniProt P29597); assay: TYK2-JH2 biochemical assay (HTRF, blocking of TYK2-JH2 protein with its probe); assay type: binding; conditions: for IC50: HTRF, 0.2 nM recombinant TYK2-JH2, Probe 1; for Biochemical assay Selectivity fold (TYK2/JAK1): TYK2-JH2 vs JAK1-JH2 biochemical IC50
T1 construct: TYK2-JH2 (aa 575-869, in-house) protein; made in house
Experimental: Assay A: TYK2-JH2 Biochemical Assay
Compounds disclosed herein were tested for blocking of TYK2-JH2 (aa 575-869, in-house) protein with its probe in an assay based on Homogeneous Time Resolved Fluorescence.
Compound dilution is done according to the following protocol: (1) Prepare 500× compounds solution in DMSO from 500 uM by 5-fold dilution, total 10 doses were included; (2) Prepare 10× compounds solution in an assay buffer containing 20 mM HEPES, pH 7.5, 10 mM MgCl2, 0.005% BSA, 2 mM DTT, 0.015% Brij-35 by transferring 1 μl serial 500× stock solution into 49 μl assay buffer. 4 μl of 0.2 nM recombinant TYK2-JH2 protein was pre-incubated with 1 μl of 10×serial dilution of compounds at room temperature for 0.5 hour. Then 5 μl of 10 nM in-house Probe 1 (6-((3,5-dimethylphenyl)amino)-8-((4,26-dioxo-30-((3aS,4S,6aR)-2-oxohexahydro-1H-thieno[3,4-d]imidazol-4-yl)-7,10,13,16,19,22-hexaoxa-3,25-diazatriacontyl)amino)imidazo[1,2-b]pyridazine-3-carboxamide, KD=10 nM), 5 μl Mab Anti-6His Tb cryptate Gold (Cat: 61HI2TLB, Cisbio Bioassays) and Streptavidin-XL665(Cat: 610SAXLB, Cisobio Bioassays) mixture were added to plate and further incubated at room temperature for 1 hour. The HTRF signals (ex337 nm, em620 nm/665 nm) were read on BMG PHERAstar FS instrument. The inhibition percentage of TYK2 interaction with its probe in presence of increasing concentrations of compounds was calculated based on the ratio of fluorescence at […]. The IC50 for each compound was derived from fitting the data to the four-parameter logistic equation by Dotmatics.

[2] = target: T2, JAK1-JH2 protein (aa 561-860, in-house) (Homo sapiens, UniProt P23458); assay: JAK1-JH2 biochemical assay (HTRF, blocking of JAK1-JH2 protein with its probe); assay type: binding; conditions: 1.17 nM recombinant JAK1-JH2, Probe 2
T2 construct: JAK1-JH2 protein (aa 561-860, in-house); made in house
T2 sequence (P23458 561-860): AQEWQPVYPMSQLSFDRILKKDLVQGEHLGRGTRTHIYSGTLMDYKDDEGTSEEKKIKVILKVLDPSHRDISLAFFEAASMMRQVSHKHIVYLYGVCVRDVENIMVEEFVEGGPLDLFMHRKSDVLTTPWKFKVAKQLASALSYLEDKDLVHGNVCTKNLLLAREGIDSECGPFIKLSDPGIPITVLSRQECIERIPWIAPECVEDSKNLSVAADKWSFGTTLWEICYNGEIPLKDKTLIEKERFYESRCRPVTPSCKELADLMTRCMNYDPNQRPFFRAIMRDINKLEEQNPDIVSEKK
Experimental: Assay B: JAK1-JH2 Biochemical Assay
Compounds disclosed herein were tested for blocking of JAK1-JH2 protein (aa 561-860, in-house) with its probe in an assay based on Homogeneous Time Resolved Fluorescence. Compound dilution is done according to the following protocol: (1) Prepare 500× compounds solution in DMSO from 500 uM by 5-fold dilution, total 10 doses were included; (2) Prepare 10× compounds solution in an assay buffer containing 20 mM HEPES, pH 7.5, 10 mM MgCl2, 0.005% BSA, 2 mM DTT, 0.015% Brij-35 by transferring 1 μl serial 500× stock solution into 49 μl assay buffer. 4 μL of 1.17 nM recombinant JAK1-JH2 protein was pre-incubated with 1 μl of 10×serial dilution of compounds at room temperature for 0.5 hour. […] The HTRF signals (ex337 nm, em620 nm/665 nm) were read on BMG PHERAstar FS instrument. The inhibition percentage of JAK1 interaction with its probe in presence of increasing concentrations of compounds was calculated based on the ratio of fluorescence at 615 nm to that at 665 nm. The IC50 for each compound was derived from fitting the data to the four-parameter logistic equation by Dotmatics.

[3] = tested on: JAK2, TYK2/p-STAT4 (Tyr693) activated by IL-12 in NK-92 cell line; assay: IL-12-JAK2, TYK2/p-STAT4 (Tyr693) inhibition cellular assay; assay type: cell-based; conditions: for IC50: NK92, 0.5 h, NK-92 cells, IL-12 40 ng/ml, 30 min, read-out: Cellular assay pSTAT4/IL-12 IC50; for Cellular assay Selectivity fold (TYK2/JAK1): pSTAT4/IL-12 vs pSTAT3/IL-6 cellular IC50
Source text: Assay C: IL-12-JAK2, TYK2/p-STAT4 (Tyr693) Inhibition IC50 Cellular Assay
To evaluate the inhibition effect of compounds disclosed herein on JAK2, TYK2/p-STAT4 (Tyr693) activated by IL-12 in NK-92 cell line, NK-92 cells were collected and washed 3 times by DPBS and resuspended in MEM-α(GIBCO,Cat #12561056) with 10% FBS (Gibco, Cat #10099, Lot #1891605), without IL-2 (R&D systems,Cat #202-IL), starved overnight. Cells were collected and resuspended in 1640 medium (phenol red free, Gibco, Cat #11835-030) with 0.1% BSA, and 12.5 μl/5×10^4/well cell suspension were seeded to the 96-well plate (Corning, Cat #3799). Then cells were treated with compounds diluted in 0.2% DMSO 1640 medium, at 37° C., 1 h. Dilution is done according to the following protocol: (1) make 500× compounds solution in DMSO from 5 mM by 4-fold dilution, total 8 doses were included; (3) make 2× compounds solution in assay medium by transferring 0.5 μl serial 500× stock solution into 125 μl assay medium; (4) 15 μl of 2× serial solution is added to cells and incubate at 37° C. for 1 h, the final compound conc. is 10000,2500,625,156.25,39,9.8,2.4 and 0.61 nM, respectively. After 1 h, cells were treated with 2.5 μl medium containing IL-12 at 37° C. (R&D systems, Cat #219-IL-005, final conc.40 ng/ml), 30 min. Following cells were lysed with 7.5 μl lysis buffer at RT, shaking on shaker for 1 h. 10 μL of cell lysate were transferred to a PE 384-well Proxiplate detection plate, and 5 μL of pre-mixed Alphascreen beads were added to each well. Covered the plate with a plate sealer, span 1000 rpm for 1 min, mix, Incubated overnight at room temperature. Read on BMG PheraStar with Alphascreen protocol. IC 50 values were calculated by fitting dependent data to the four-parameter logistic model using dotmatics software. The assay was performed by using AlphaLISA SureFire Ultra p-STAT4 (Tyr693) Assay Kit—High Volume (PE, Cat #ALSU-PST4-A-HV).

[4] = tested on: JAK1/p-STAT3(Tyr705) activated by IL-6 in TF-1 cell line; assay: IL-6-JAK1/p-STAT3(Tyr705) inhibition cellular assay; assay type: cell-based; conditions: Homo sapiens, 0.5 h; TF-1 cells, IL-6 50 ng/ml, 30 min; read-out: Cellular assay pSTAT3/IL-6 IC50
Source text: Assay D: IL-6-JAK1/p-STAT3(Tyr705) Inhibition IC50 Cellular Assay
To evaluate the inhibition effect of compounds disclosed herein on JAK1/p-STAT3(Tyr705) activated by IL-6 in TF-1 cell line, TF-1 cells were collected and washed 3 times by DPBS and resuspended in RPMI-1640 (phenol red free, Gibco, Cat #11835-030) with 0.1% FBS (Gibco, Cat #10099, Lot #1891605), without GM-CSF(R&D systems,Cat #215-GM-050), starved overnight. Cells were collected and resuspended in 1640 medium (phenol red free, Gibco, Cat #11835-030) with 0.1% BSA, and 12.5 μl/10×10^4/well cell suspension were seeded to the 96-well plate (Corning, Cat #3799). Then cells were treated with compounds diluted in 0.2% DMSO 1640 medium, at 37° C., 1 h. Dilution is done according to the following protocol: (1) make 500× compounds solution in DMSO from 5 mM by 4-fold dilution, total 8 doses were included; (3) make 2× compounds solution in assay medium by transferring 0.5 μl serial 500× stock solution into 125 μl assay medium; (4) 15 μl of 2× solution is added to cells and incubate at 37° C. for 1 h, the final compound conc. is 10000,2500,625,156.25,39,9.8,2.4 and 0.61 nM, respectively. After 1 h, cells were treated with 2.5 μl medium containing IL-6 at 37° C. (R&D systems, Cat #206-IL-010, final conc.50 ng/ml), 30 min. Following cells were lysed with 10 μl lysis buffer at RT, shaking on shaker for 1 h. 16 μL of cell lysate were transferred to a PE 384-well HTRF detection plate, and 4 μL of pre-mixed HTRF antibodies were added to each well. Covered the plate with a plate sealer, span 1000 rpm for 1 min, mix, Incubated overnight at room temperature. Read on BMG PheraStar with HTRF protocol (337 nm-665 nm-620 nm). IC 50 values were calculated by fitting dependent data to the four-parameter logistic model using dotmatics software. The assay was performed by using HTRF Phospho-STAT3(Tyr705) Cellular Assay Kit (Cisbio, Cat #62AT3PEG).

T1 sequence (P29597 575-869): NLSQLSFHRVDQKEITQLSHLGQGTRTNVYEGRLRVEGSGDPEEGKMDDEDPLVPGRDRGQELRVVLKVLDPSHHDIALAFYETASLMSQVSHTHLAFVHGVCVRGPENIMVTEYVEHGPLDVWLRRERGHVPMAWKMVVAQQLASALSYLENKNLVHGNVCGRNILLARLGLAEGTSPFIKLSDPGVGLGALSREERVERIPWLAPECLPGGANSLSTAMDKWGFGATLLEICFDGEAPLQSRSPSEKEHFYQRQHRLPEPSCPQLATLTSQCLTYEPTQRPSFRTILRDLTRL

Compound | IC50 [1] | Biochemical assay Selectivity fold (TYK2/JAK1) [1] | IC50 [2] | IC50 [3] | Cellular assay Selectivity fold (TYK2/JAK1) [3] | IC50 [4]
CNC(=O)c1nnc(NC(=O)C2CC2)cc1Nc1nc2ccc(N3CC(C)(N(C)C)C3)cn2n1 [Example E6] | 0.056 nM | 10 fold | 0.56 nM | 15.4 nM | 106 fold | 1640 nM
CNC(=O)c1nnc(NC(=O)C2CC2)cc1Nc1nc2ccc(N3CC(c4ncn(C)n4)C3)cn2n1 [Example E7, 6-(cyclopropanecar-boxamido)-N-methyl-4-((6-(3-(1-methyl-1H-1,2,4-triazol-3-yl)azetidin-1-yl)-[1,2,4]triazolo [1,5-a]pyridin-2-yl)amino)pyridazine-3-carboxamide] | 0.084 nM | 9 fold | 0.78 nM | 47.8 nM | >209 fold | > 10000 nM
CNC(=O)c1nnc(NC(=O)C2CC2)cc1Nc1nc2ccc(N3CC(C)(C)C3)cn2n1 [Example E8, 6-(cyclopropanecar-boxamido)-4-((6-(3,3-dimethylazetidin-1-yl)-[1,2,4]triazolo[1,5-a]pyridin-2-yl)amino)-N-methylpyridazine-3-carboxamide] | 0.044 nM | 68 fold | 3 nM | 13.8 nM | >724 fold | > 10000 nM
CNC(=O)c1nnc(NC(=O)C2CC2)cc1Nc1nc2ccc(N3CC(F)C3)cn2n1 [Example E9, 6-(cyclopropanecar-boxamido)-4-((6-(3-fluoroazetidin-1-yl)-[1,2,4]triazolo[1,5-a]pyridin-2-yl)amino)-N-methylpyridazine-3-carboxamide] | 0.097 nM | 25 fold | 2.4 nM | 19.6 nM | >510 fold | > 10000 nM
CNC(=O)c1nnc(NC(=O)C2CC2)cc1Nc1nc2ccc(N3CC(F)(F)C3)cn2n1 [Example E10, 6-(cyclopropanecar-boxamido)-4-((6-(3,3-difluoroazetidin-1-yl)-[1,2,4]triazolo[1,5-a]pyridin-2-yl)amino)-N-methylpyridazine-3-carboxamide] | 0.15 nM | 20 fold | 3 nM | 47 nM | >212 fold | > 10000 nM
CNC(=O)c1nnc(NC(=O)C2CC2)cc1Nc1nc2ccc(N3CCC(N4CC(F)(F)C4)CC3)cn2n1 [Example E12, 6-(cyclopropanecar-boxamido)-4-((6-(4-(3,3-difluoroazetidin-1-yl)piperidin-1-yl)-[1,2,4]triazolo[1,5-a]pyridin-2-yl)amino)-N-methylpyridazine-3-carboxamide] | 0.024 nM | 71 fold | 1.7 nM | 6.31 nM | 1478 fold | 9930 nM
CNC(=O)c1nnc(NC(=O)C2CC2)cc1Nc1nc2ccc(N3CCCC(N4CC(F)(F)C4)C3)cn2n1 (stereo not drawn) [Example E13, 6-(cyclopropanecar-boxamido)-4-((6-(3-(3,3-difluoroazetidin-1-yl)piperidin-1-yl)-[1,2,4]triazolo[1,5-a]pyridin-2-yl)amino)-N-methylpyridazine-3-carboxamide] | 0.047 nM | 55 fold | 2.6 nM | 15.9 nM | >629 fold | > 10000 nM
CNC(=O)c1nnc(NC(=O)C2CC2)cc1Nc1nc2ccc(N3CC(N4CCCCC4)C3)cn2n1 [Example E14, 6-(cyclopropanecar-boxamido)-N-methyl-4-((6-(3-(piperidin-1-yl)azetidin-1-yl)-[1,2,4]triazolo [1,5-a]pyridin-2-yl)amino) pyridazine-3-carboxamide] | 0.11 nM | 16 fold | 1.8 nM | 42.6 nM | >234 fold | > 10000 nM

From patent US12606556B2, “TYK-2 inhibitor” (BEIGENE, LTD., priority 2020, dated 2026)
